Data published in paper PMC12022113 (Nature Communications, 2025).
Entries after “also recorded” stand apart in the source; their conditions may differ.

Assays:
[1] = test system: V1aR; conditions: cited from earlier work
[2] = test system: V2R; conditions: cited from earlier work
[3] = test system: OTR; conditions: cited from earlier work
[4] = target: V2R E184A mutant (Homo sapiens, UniProt P30518, E184A); type: binding
[5] = target: V2R Q291A mutant (Homo sapiens, UniProt P30518, Q291A); type: binding
[6] = test system: V2R; conditions: cited from earlier work; remark: listed apart in the source
[7] = target: V2R I209A mutant (Homo sapiens, UniProt P30518, I209A); type: binding
[8] = target: V2R S315A mutant (Homo sapiens, UniProt P30518, S315A); type: binding
[9] = in vivo; cited from earlier work
[10] = target: V2R F287A mutant (Homo sapiens, UniProt P30518, F287A); type: binding
[11] = target: V2R K116A mutant (Homo sapiens, UniProt P30518, K116A); type: binding
[12] = target: V2R Q174A mutant (Homo sapiens, UniProt P30518, Q174A); type: binding
[13] = target: V2R D103A mutant (Homo sapiens, UniProt P30518, D103A); type: binding
[14] = target: V2R Q119A mutant (Homo sapiens, UniProt P30518, Q119A); type: binding
[15] = target: V2R R104A mutant (Homo sapiens, UniProt P30518, R104A); type: binding

Cc1nc2c([nH]1)-c1ccccc1N(C(=O)c1ccc(NC(=O)c3ccccc3-c3ccccc3)cc1)CC2 [Conivaptan]
affinity for V1aR [1]: high affinity
selectivity to V2R [2]: not selective to V2R

CC[C@H](C)[C@@H]1C(=O)N[C@H](C2Cc3ccccc3C2)C(=O)N1[C@@H](C(=O)N1CCOCC1)c1coc(C)n1 [Retosiban]
OTR antagonism [3]: potent OTR-selective non-peptide antagonist

Cc1ccccc1C(=O)Nc1ccc(C(=O)N2CCCC(O)c3cc(Cl)ccc32)c(C)c1 (centres unmarked) [TVP, 7-Chloro-5-hydroxy-1-[2-methyl-4-(2-methylbenzoylamino)benzoyl]-2,3,4,5-tetrahydro-1 H -1-benzazepine]
effect of mutation (loss or gain vs WT) [4]: less than 5 fold
effect of mutation on affinity [4]: very limited effect or were without effect
effect of mutation (loss or gain vs WT) [5]: less than 5 fold
effect of mutation on affinity [5]: moderate change in binding affinity
efficacy toward the Gs/cAMP pathway [6]: inverse agonist
inhibition of V2R-dependent signaling pathways [6]: inhibit V2R-dependent signaling pathways
effect of mutation (loss or gain vs WT) [7]: less than 5 fold
effect of mutation on affinity [7]: very limited effect or were without effect
effect of mutation (loss or gain vs WT) [8]: less than 5 fold
effect of mutation on affinity [8]: very limited effect or were without effect
liver injury [9]: serious and potentially fatal liver injury
urine volume [9]: increasing the amount of urine volume
effect of mutation on affinity [10]: moderate change in binding affinity
effect of mutation on affinity [11]: moderate change in binding affinity; also recorded: less pronounced regarding TVP affinity, but was significant
effect of mutation on affinity [12]: significant decrease in TVP affinity
effect of mutation (loss or gain vs WT) [13]: less than 5 fold
affinity for V2R [2]: high affinity
effect of mutation on affinity [14]: significant gain in affinity
effect of mutation (loss or gain vs WT) [15]: less than 5 fold
effect of mutation on affinity [15]: very limited effect or were without effect
